Source: patent US11981642B1, “4-(4,5-bis(4-bromophenyl)-2-(4-chlorophenyl)-1H-imidazol-1-yl)butanoic acid as an antimicrobial compound” (priority 2023, dated 2024)

Test system: different microbes (Bacillus cereus, Staphylococcus aureus, Pseudomonas aeruginosa, Escherichia coli, Aspergillus flavus, Chrysosporium keratinophilum)
Experiment: Antimicrobial testing, agar plate disc-diffusion method
Format: cell-based
Conditions: screened against gram-positive and gram-negative bacteria and fungi; result in words only, no inhibition zones printed
Procedure: The agar plate disc-diffusion method was applied. Sterilized filter papers (6 mm in diameter) were wetted with 10 μL of a solution of 4-(4,5-bis(4-bromophenyl)-2-(4-chlorophenyl)-1H-imidazol-1-yl)butanoic acid (V) to be tested, containing 10 mg/mL in DMSO, and the discs were allowed to air dry. The discs were then placed onto the surface of agar plates (nutrient agar for bacteria and Sabouraud's dextrose agar for fungi) seeded with the test organism. Each plate contained 15 mL of the agar medium, previously seeded with 0.2 mL of the broth culture of each organism pregrown for 18 hours. The plates were incubated at 37° C. for 48 hours, and 72 hours for fungi. The inhibition zones was measured in mm. Discs impregnated with DMSO were used as a control, and its inhibition zone was subtracted from the tested compound actual inhibition zone.

## O=C(O)CCCn1c(-c2ccc(Cl)cc2)nc(-c2ccc(Br)cc2)c1-c1ccc(Br)cc1 [V, 4-(4,5-bis(4-bromophenyl)-2-(4-chlorophenyl)-1H-imidazol-1-yl)butanoic acid]
  antimicrobial activities against different microbes: excellent antimicrobial activities
